Assay [1] deals with T1, SARS-CoV-2 PLpro (nsp3 1564–1878) (Severe acute respiratory syndrome coronavirus 2, UniProt P0DTD1). Nature of the assay: biochemical. Also on record: FRET-quenched peptide (Pro3) cleavage by PLpro, 10 min pre-incubation, slope over 20 min, normalised to no-compound control. As to conditions: high concentration screen, read-out: % of control remaining.
For assay [2], the target named is T1, SARS-CoV-2 PLpro (nsp3 1564–1878). The assay is described as follows: biochemical. Also on record: FRET-quenched peptide (Pro3) cleavage by PLpro, 10 min pre-incubation, slope over 20 min, normalised to no-compound control. Conditions: low concentration screen, read-out: % of control remaining.

Counter-ions that a name gives are not always drawn. Like-named read-outs stand apart in the source and are kept apart here.

For the molecule `NCC(O)c1ccc(O)cc1` (racemic) [(+,-)-Octopamine HCl], the remaining activity at 3.75 µM in assay [1] (Well no.=5038) was 103%. The remaining activity at 1.25 µM in assay [2] (Well no.=5038) was 101%.

With `CCCC(=O)OC(CNC(C)(C)C)COc1nsnc1N1CCOCC1` (racemic) [(RS)-Butyryltimolol], the remaining activity at 3.75 µM in assay [1] (Well no.=7133) was 96.2%. For the same molecule, the remaining activity at 1.25 µM in assay [2] (Well no.=7133) stood at 102%.

For the molecule `CC(N)(C(=O)O)c1ccc(C(=O)O)cc1` (racemic) [(RS)-MCPG], the remaining activity at 3.75 µM in assay [1] (Well no.=8575) turned out to be 102%. In addition, in assay [2] (Well no.=8575), the remaining activity at 1.25 µM was 109%.

In the case of `CN1C[C@@H]2c3ccccc3Oc3ccc(Cl)cc3[C@H]2C1` (racemic) [Asenapine (hydrochloride)], the remaining activity at 3.75 µM in assay [1] (Well no.=7661) was 97%. Also, the remaining activity at 1.25 µM in assay [2] (Well no.=7661) is 101%.

On to `CN1C[C@@H]2c3ccccc3Oc3ccc(Cl)cc3[C@H]2C1` (racemic) [Asenapine (maleate)], for which the remaining activity at 3.75 µM in assay [1] (Well no.=6513) came out at 103%. Further, the remaining activity at 1.25 µM in assay [2] (Well no.=6513) was 102%.

Take `C[C@H](Cc1ccc(OCC(=O)O)cc1)NC[C@H](O)c1cccc(Cl)c1` (racemic) [BRL 37344 sodium]: the remaining activity at 3.75 µM in assay [1] (Well no.=183) was 103%. Moreover, the remaining activity at 1.25 µM in assay [2] (Well no.=183) was 98%.

In the case of `COc1cc(N)c(Cl)cc1C(=O)N[C@@H]1CCN(CCCOc2ccc(F)cc2)C[C@@H]1OC` (racemic) [Cisapride], the remaining activity at 3.75 µM in assay [1] (Well no.=6909) was 90.7%. Moreover, the remaining activity at 1.25 µM in assay [2] (Well no.=6909) amounted to 91.7%.

For `O=C(O)C(O)Cc1ccccc1` (racemic) [DL-3-Phenyllactic acid], the remaining activity at 3.75 µM in assay [1] (Well no.=7171) turned out to be 99.8%. Further, in assay [2] (Well no.=7171), the remaining activity at 1.25 µM is 102%.

In the case of `CNCC(O)c1ccc(O)c(O)c1` (racemic) [DL-Adrenaline], in assay [1] (Well no.=5278), the remaining activity at 3.75 µM was 94.3%. Further, the remaining activity at 1.25 µM in assay [2] (Well no.=5278) was determined as 96.6%.

Consider `CCCCS(=N)(=O)CCC(N)C(=O)O` (racemic) [DL-Buthionine-[S,R]-sulfoximine], for which the remaining activity at 3.75 µM in assay [1] (Well no.=363) worked out at 93.8%. For the same molecule, the remaining activity at 1.25 µM in assay [2] (Well no.=363) stood at 96.1%.

For `NC1CONC1=O` (racemic) [DL-Cycloserine], the remaining activity at 3.75 µM in assay [1] (Well no.=136) turned out to be 108%. The remaining activity at 1.25 µM in assay [2] (Well no.=136) is 109%.

With `NC(Cc1ccc(O)c(O)c1)C(=O)O` (racemic) [DL-Dopa], in assay [1] (Well no.=6391), the remaining activity at 3.75 µM turned out to be 107%. The remaining activity at 1.25 µM in assay [2] (Well no.=6391) was found to be 106%.

Consider `CCCC(N)C(=O)O` (racemic) [DL-Norvaline], for which the remaining activity at 3.75 µM in assay [1] (Well no.=7399) is 108%; in assay [1] (Well no.=8563), 109%. Also, in assay [2] (Well no.=7399), the remaining activity at 1.25 µM stood at 108%.

`CCCCCCCCCCCCCCCC(=O)N[C@H](CN1CCOCC1)[C@H](O)c1ccccc1` (racemic) [DL-PPMP]: the remaining activity at 3.75 µM in assay [1] (Well no.=4591) is 100%. For the same molecule, the remaining activity at 1.25 µM in assay [2] (Well no.=4591) amounted to 93.5%.

With `O=C(O)CNC(=O)C(CS)Cc1ccccc1` (racemic) [DL-Thiorphan], in assay [1] (Well no.=1243), the remaining activity at 3.75 µM amounted to 104%. The remaining activity at 1.25 µM in assay [2] (Well no.=1243) amounted to 103%.

Consider `NCCC[C@](N)(C(=O)O)C(F)F` (racemic) [DL-alpha-Difluoromethylornithine hydrochloride], for which the remaining activity at 3.75 µM in assay [1] (Well no.=500) turned out to be 104%. Moreover, the remaining activity at 1.25 µM in assay [2] (Well no.=500) amounted to 103%.

Turning to `CCCCCCCCCCCCCCC[C@H](O)[C@H](N)CO` (racemic) [DL-erythro-Dihydrosphingosine], in assay [1] (Well no.=628), the remaining activity at 3.75 µM came to 93.6%. Moreover, the remaining activity at 1.25 µM in assay [2] (Well no.=628) came to 95.5%.

For `COC(=O)C(N)Cc1ccc(Cl)cc1` (racemic) [DL-p-Chlorophenylalanine methyl ester hydrochloride], the remaining activity at 3.75 µM in assay [1] (Well no.=364) is 91.1%. Besides, in assay [2] (Well no.=364), the remaining activity at 1.25 µM is 95.9%.

For the molecule `N[C@H](C(=O)O)[C@H](O)C(=O)O` (racemic) [DL-threo-beta-hydroxyaspartic acid], the remaining activity at 3.75 µM in assay [1] (Well no.=418) came to 95.6%. In assay [2] (Well no.=418), the remaining activity at 1.25 µM came to 96.9%.

Take `Oc1cc2c(cc1O)[C@H]1c3ccccc3CN[C@@H]1CC2` (racemic) [Dihydrexidine hydrochloride]: in assay [1] (Well no.=645), the remaining activity at 3.75 µM is 91.3%. The remaining activity at 1.25 µM in assay [2] (Well no.=645) was found to be 87.6%.

On to `O=C(O)CCC/C=C\C[C@@H]1[C@@H](/C=C/[C@@H](O)COc2cccc(C(F)(F)F)c2)[C@H](O)C[C@@H]1O` (racemic) [Fluprostenol], for which, in assay [1] (Well no.=4528), the remaining activity at 3.75 µM came out at 99.8%. Moreover, the remaining activity at 1.25 µM in assay [2] (Well no.=4528) was 96.4%.

Regarding `O=C(C[C@H]1NCCC[C@@H]1O)Cn1cnc2cc(Br)c(Cl)cc2c1=O` (racemic) [Halofuginone], the remaining activity at 3.75 µM in assay [1] (Well no.=7360) was determined as 95.2%. Besides, the remaining activity at 1.25 µM in assay [2] (Well no.=7360) stood at 103%.

Regarding `CC(=O)N1CCN(c2ccc(OC[C@@H]3CO[C@@](Cn4ccnc4)(c4ccc(Cl)cc4Cl)O3)cc2)CC1` (racemic) [Ketoconazole], the remaining activity at 3.75 µM stood at 107% in assay [1] (Well no.=877) and 100% in assay [1] (Well no.=1853). Moreover, the remaining activity at 1.25 µM in assay [2] (Well no.=877) was 107%; in assay [2] (Well no.=1853) it was 99.4%.

For the molecule `CCN(CC)C(=O)[C@]1(c2ccccc2)C[C@@H]1CN` (racemic) [Milnacipran HCl], the remaining activity at 3.75 µM in assay [1] (Well no.=4977) turned out to be 101%. For the same molecule, the remaining activity at 1.25 µM in assay [2] (Well no.=4977) is 102%.

In the case of `CN1C(=O)NC(Cc2c[nH]c3c(Cl)cccc23)C1=O` (racemic) [Necrostatin 2 (racemate)], in assay [1] (Well no.=6828), the remaining activity at 3.75 µM worked out at 95%. Besides, the remaining activity at 1.25 µM in assay [2] (Well no.=6828) turned out to be 99.1%.

Take `CCCCCCCCCCCCCCCC(=O)OC(CC(=O)O)C[N+](C)(C)C` (racemic) [Palmitoyl-DL-Carnitine chloride]: in assay [1] (Well no.=1098), the remaining activity at 3.75 µM turned out to be 85.4%. Also, the remaining activity at 1.25 µM in assay [2] (Well no.=1098) stood at 86.5%.

As for `CCOc1ccccc1O[C@H](c1ccccc1)[C@H]1CNCCO1` (racemic) [Reboxetine mesylate], the remaining activity at 3.75 µM in assay [1] (Well no.=4989) was determined as 91.1%. Besides, in assay [2] (Well no.=4989), the remaining activity at 1.25 µM is 94.7%.

For `C[C@@H](NCCc1ccc(O)cc1)[C@@H](O)c1ccc(O)cc1` (racemic) [Ritodrine (hydrochloride)], in assay [1] (Well no.=6427), the remaining activity at 3.75 µM was 91.3%. Moreover, the remaining activity at 1.25 µM in assay [2] (Well no.=6427) was determined as 100%.

Regarding `C[C@@H](NCCc1ccc(O)cc1)[C@@H](O)c1ccc(O)cc1` (racemic) [Ritodrine hydrochloride], the remaining activity at 3.75 µM in assay [1] (Well no.=1156) was determined as 103%. Besides, in assay [2] (Well no.=1156), the remaining activity at 1.25 µM was found to be 97.7%.

Regarding `COc1cc2c(cc1OC)[C@H]1CC(=O)[C@H](CC(C)C)CN1CC2` (racemic) [Tetrabenazine (Racemate)], the remaining activity at 3.75 µM in assay [1] (Well no.=8692) was determined as 93.1%. For the same molecule, the remaining activity at 1.25 µM in assay [2] (Well no.=8692) stood at 95.2%.

With `N[C@@H]1C[C@H]1c1ccccc1` (racemic) [Tranylcypromine], the remaining activity at 3.75 µM in assay [1] (Well no.=1564) amounted to 95.7%. The remaining activity at 1.25 µM in assay [2] (Well no.=1564) worked out at 95.7%.

The record behind these values is article PMC8286840, “Identifying SARS-CoV-2 antiviral compounds by screening for small molecule inhibitors of Nsp3 papain-like protease” (Biochemical Journal, 2021).
